Reference: ChEMBL document CHEMBL1201861, “Genomics of Drug Sensitity in Cancer screening data, Wellcome Trust Sanger Institute”
Values joined by “and” are separate entries in the source; they are usually repeats but may differ in a detail not shown here. Equal values may be shown once.

Legend:
Experiment in all cases: cells
[1] = test system: ChaGo-K-1; type: functional, cell-based; conditions: Homo sapiens;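 also: growth inhibition of ChaGo-K-1 cells, read out with a cell viability assay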
Description: SANGER: Inhibition of human ChaGo-K-1 cell growth in a cell viability assay.

[2] = test system: DMS-79; type: functional, cell-based; conditions: Homo sapiens;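 also: growth inhibition measured with a cell viability assay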
Description: SANGER: Inhibition of human DMS-79 cell growth in a cell viability assay.

[3] = test system: DOHH-2; type: functional, cell-based; conditions: Homo sapiens;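 also: growth inhibition of human DOHH-2 cells, read out with a cell viability assay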
Description: SANGER: Inhibition of human DOHH-2 cell growth in a cell viability assay.

[4] = test system: EM-2; type: functional, cell-based; conditions: Homo sapiens;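 also: growth inhibition of EM-2 cells, read out with a cell viability assay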
Description: SANGER: Inhibition of human EM-2 cell growth in a cell viability assay.

[5] = test system: ES6; type: functional, cell-based, Homo sapiens;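 also: growth inhibition of human ES6 cells, read out with a cell viability assay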
Description: SANGER: Inhibition of human ES6 cell growth in a cell viability assay.

[6] = test system: EW-13; type: functional, cell-based; conditions: Homo sapiens;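 also: growth inhibition of EW-13 cells, read out with a cell viability assay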
Description: SANGER: Inhibition of human EW-13 cell growth in a cell viability assay.

[7] = test system: HCC70; type: functional, cell-based, Homo sapiens;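 also: cell viability assay measuring how strongly the compound suppresses proliferation of HCC70 cells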
Description: SANGER: Inhibition of human HCC70 cell growth in a cell viability assay.

[8] = test system: HGC-27; type: functional, cell-based, Homo sapiens;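 also: growth inhibition of human HGC-27 cells, read out in a cell viability assay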
Description: SANGER: Inhibition of human HGC-27 cell growth in a cell viability assay.

[9] = test system: HL-60; type: functional, cell-based; conditions: Homo sapiens;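 also: growth inhibition of human HL-60 cells, read out with a cell viability assay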
Description: SANGER: Inhibition of human HL-60 cell growth in a cell viability assay.

[10] = test system: HN; type: functional, cell-based, Homo sapiens
Description: SANGER: Inhibition of human HN cell growth in a cell viability assay.

[11] = test system: HT-1376; type: functional, cell-based, Homo sapiens
Description: SANGER: Inhibition of human HT-1376 cell growth in a cell viability assay.

[12] = test system: HuP-T3; type: functional, cell-based, Homo sapiens;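 also: HuP-T3 cell growth inhibition, read out with a cell viability assay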
Description: SANGER: Inhibition of human HuP-T3 cell growth in a cell viability assay.

[13] = test system: HuP-T4; type: functional, cell-based, Homo sapiens;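 also: cell viability assay measuring how much HuP-T4 cell growth is inhibited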
Description: SANGER: Inhibition of human HuP-T4 cell growth in a cell viability assay.

[14] = test system: J82; type: functional, cell-based; conditions: Homo sapiens;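 also: growth inhibition of J82 cells, read out with a cell viability assay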
Description: SANGER: Inhibition of human J82 cell growth in a cell viability assay.

[15] = test system: JVM-2; type: functional, cell-based; conditions: Homo sapiens;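 also: growth inhibition of JVM-2 cells determined by a cell viability assay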
Description: SANGER: Inhibition of human JVM-2 cell growth in a cell viability assay.

[16] = test system: LC-2-ad; type: functional, cell-based, Homo sapiens;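 also: growth inhibition of human LC-2-ad cells, read out with a cell viability assay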
Description: SANGER: Inhibition of human LC-2-ad cell growth in a cell viability assay.

[17] = test system: LK-2; type: functional, cell-based, Homo sapiens;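 also: growth inhibition of LK-2 cells, read out with a viability assay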
Description: SANGER: Inhibition of human LK-2 cell growth in a cell viability assay.

[18] = test system: LOX IMVI; type: functional, cell-based; conditions: Homo sapiens
Description: SANGER: Inhibition of human LOXIMVI cell growth in a cell viability assay.

[19] = test system: LS-411N; type: functional, cell-based, Homo sapiens
[20] = test system: MDA-MB-361; type: functional, cell-based, Homo sapiens
[21] = test system: MHH-PREB-1; type: functional, cell-based; conditions: Homo sapiens;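 also: cell viability assay measuring inhibition of proliferation of human MHH-PREB-1 cells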
Description: SANGER: Inhibition of human MHH-PREB-1 cell growth in a cell viability assay.

[22] = test system: MKN-7; type: functional, cell-based, Homo sapiens;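 also: growth inhibition of MKN-7 cells, read out with a cell viability assay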
Description: SANGER: Inhibition of human MKN7 cell growth in a cell viability assay.

[23] = test system: MZ2-MEL; type: functional, cell-based, Homo sapiens;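 also: growth inhibition of MZ2-MEL cells read out with a cell viability assay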
Description: SANGER: Inhibition of human MZ2-MEL cell growth in a cell viability assay.

[24] = test system: MZ7-mel; type: functional, cell-based, Homo sapiens;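 also: growth inhibition of human MZ7-mel cells, measured by a cell viability assay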
Description: SANGER: Inhibition of human MZ7-mel cell growth in a cell viability assay.

[25] = test system: NB5; type: functional, cell-based, Homo sapiens;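 also: growth inhibition of NB5 cells, read out as cell viability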
Description: SANGER: Inhibition of human NB5 cell growth in a cell viability assay.

[26] = test system: NCI-H1623; type: functional, cell-based, Homo sapiens;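 also: cell viability assay used as the read-out for growth inhibition of NCI-H1623 cells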
Description: SANGER: Inhibition of human NCI-H1623 cell growth in a cell viability assay.

[27] = test system: NCI-H1648; type: functional, cell-based, Homo sapiens;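 also: cell viability assay measuring inhibition of NCI-H1648 cell growth, from the Sanger screening data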
Description: SANGER: Inhibition of human NCI-H1648 cell growth in a cell viability assay.

[28] = test system: NCI-H1693; type: functional, cell-based, Homo sapiens;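 also: growth inhibition of the human cell line, read out with a cell viability assay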
Description: SANGER: Inhibition of human NCI-H1693 cell growth in a cell viability assay.

[29] = test system: NTERA-2-cl-D1; type: functional, cell-based, Homo sapiens;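 also: inhibition of cell growth, measured with a cell viability assay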
Description: SANGER: Inhibition of human NTERA-S-cl-D1 cell growth in a cell viability assay.

[30] = test system: ONS-76; type: functional, cell-based, Homo sapiens;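 also: growth inhibition of human ONS-76 cells, read out with a cell viability assay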
Description: SANGER: Inhibition of human ONS-76 cell growth in a cell viability assay.

[31] = test system: PFSK-1; type: functional, cell-based, Homo sapiens;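 also: cell viability assay measuring how strongly compounds suppress growth of human PFSK-1 cells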
Description: SANGER: Inhibition of human PFSK-1 cell growth in a cell viability assay.

[32] = test system: RCM-1; type: functional, cell-based, Homo sapiens;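 also: growth inhibition of the RCM-1 line, determined with a cell viability readout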
Description: SANGER: Inhibition of human RCM-1 cell growth in a cell viability assay.

[33] = test system: SCC-15; type: functional, cell-based, Homo sapiens;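 also: growth inhibition of SCC-15 cells, read out with a cell viability assay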
Description: SANGER: Inhibition of human SCC-15 cell growth in a cell viability assay.

[34] = test system: SW1417; type: functional, cell-based, Homo sapiens;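 also: growth inhibition of human SW1417 cells, read out with a cell viability assay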
Description: SANGER: Inhibition of human SW1417 cell growth in a cell viability assay.

[35] = test system: SW1990; type: functional, cell-based, Homo sapiens;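 also: cell growth inhibition determined with a viability assay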
Description: SANGER: Inhibition of human SW1990 cell growth in a cell viability assay.

[36] = test system: SW-620; type: functional, cell-based, Homo sapiens;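 also: growth inhibition of human SW-620 cells, measured by a cell viability assay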
Description: SANGER: Inhibition of human SW620 cell growth in a cell viability assay.

[37] = test system: SW 954; type: functional, cell-based, Homo sapiens;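 also: growth inhibition of SW954 human cancer cells, read out as cell viability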
Description: SANGER: Inhibition of human SW954 cell growth in a cell viability assay.

[38] = test system: 8-MG-BA; type: functional, cell-based, Homo sapiens;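 also: growth inhibition of 8-MG-BA cells, read out with a cell viability assay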
Description: SANGER: Inhibition of human 8-MG-BA cell growth in a cell viability assay.

[39] = test system: A-375; type: functional, cell-based, Homo sapiens;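 also: growth inhibition of A375 cells, read out with a cell viability assay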
Description: SANGER: Inhibition of human A375 cell growth in a cell viability assay.

[40] = test system: A388; type: functional, cell-based, Homo sapiens;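 also: growth inhibition of human A388 cells, read out with a cell viability assay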
Description: SANGER: Inhibition of human A388 cell growth in a cell viability assay.

[41] = test system: ACHN; type: functional, cell-based, Homo sapiens;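 also: cell viability read-out used to gauge how strongly growth of human ACHN cells is suppressed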
Description: SANGER: Inhibition of human ACHN cell growth in a cell viability assay.

[42] = test system: ALL-PO; type: functional, cell-based; conditions: Homo sapiens;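 also: growth inhibition of ALL-PO cells, read out by a cell viability assay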
Description: SANGER: Inhibition of human ALL-PO cell growth in a cell viability assay.

[43] = test system: BV-173; type: functional, cell-based; conditions: Homo sapiens
Description: SANGER: Inhibition of human BV-173 cell growth in a cell viability assay.

[44] = test system: TE-6; type: functional, cell-based, Homo sapiens;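 also: growth inhibition of TE-6 cells, read out with a cell viability assay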
Description: SANGER: Inhibition of human TE-6 cell growth in a cell viability assay.

[45] = test system: TE-8; type: functional, cell-based, Homo sapiens;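 also: growth inhibition of TE-8 cells, measured with a cell viability readout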
Description: SANGER: Inhibition of human TE-8 cell growth in a cell viability assay.

[46] = test system: TYK-nu; type: functional, cell-based, Homo sapiens;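 also: growth inhibition of human TYK-nu cells, read out by a cell viability assay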
Description: SANGER: Inhibition of human TYK-nu cell growth in a cell viability assay.

[47] = test system: VMRC-RCZ; type: functional, cell-based; conditions: Homo sapiens;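 also: growth inhibition measured with a cell viability assay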
Description: SANGER: Inhibition of human VMRC-RCZ cell growth in a cell viability assay.

[48] = test system: CAMA-1; type: functional, cell-based, Homo sapiens;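 also: growth inhibition of CAMA-1 cells, read out with a cell viability assay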
Description: SANGER: Inhibition of human CAMA-1 cell growth in a cell viability assay.

[49] = test system: CGTH-W-1; type: functional, cell-based, Homo sapiens;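 also: growth inhibition of human CGTH-W-1 cells measured by cell viability assay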
Description: SANGER: Inhibition of human CGTH-W-1 cell growth in a cell viability assay.

[50] = test system: COLO-668; type: functional, cell-based, Homo sapiens
Description: SANGER: Inhibition of human COLO-668 cell growth in a cell viability assay.

[51] = test system: DU-4475; type: functional, cell-based; conditions: Homo sapiens
Description: SANGER: Inhibition of human DU-4475 cell growth in a cell viability assay.

[52] = test system: KY821; type: functional, cell-based; conditions: Homo sapiens;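 also: growth inhibition of human KY821 cells, read out by a cell viability assay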
Description: SANGER: Inhibition of human KY821 cell growth in a cell viability assay.

[53] = test system: AGS; type: functional, cell-based, Homo sapiens;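 also: growth inhibition of AGS cells, determined with a cell viability assay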
Description: SANGER: Inhibition of human AGS cell growth in a cell viability assay.

Measured: IC50

CN(Cc1cnc2nc(N)nc(N)c2n1)c1ccc(C(=O)N[C@@H](CCC(=O)O)C(=O)O)cc1 [METHOTREXATE]
0.00586 µM: [42]
> 0.2 µM: [1] | [2] | [5]; Homo sapiens, ES6 | [7]; Homo sapiens, HCC70 | [8]; Homo sapiens, HGC-27 | [10]; Homo sapiens, HN | [11]; Homo sapiens, HT-1376 | [12]; Homo sapiens, HuP-T3 | [13]; Homo sapiens, HuP-T4 | [14] | [15] | [16]; Homo sapiens, LC-2-ad | [17]; Homo sapiens, LK-2 | [18] | [20]; Homo sapiens, MDA-MB-361 | [22]; Homo sapiens, MKN-7 | [23]; Homo sapiens, MZ2-MEL | [24]; Homo sapiens, MZ7-mel | [25]; Homo sapiens, NB5 | [26]; Homo sapiens, NCI-H1623 | [27]; Homo sapiens, NCI-H1648 | [28]; Homo sapiens, NCI-H1693 | [29]; Homo sapiens, NTERA-2-cl-D1 | [31]; Homo sapiens, PFSK-1 | [32]; Homo sapiens, RCM-1 | [33]; Homo sapiens, SCC-15 | [34]; Homo sapiens, SW1417 | [35]; Homo sapiens, SW1990 | [36]; Homo sapiens, SW-620 | [37]; Homo sapiens, SW 954 | [38]; Homo sapiens, 8-MG-BA | [39]; Homo sapiens, A-375 | [40]; Homo sapiens, A388 | [44]; Homo sapiens, TE-6 | [45]; Homo sapiens, TE-8 | [47] | [48]; Homo sapiens, CAMA-1 | [50]; Homo sapiens, COLO-668
0.197 µM: [46]; Homo sapiens, TYK-nu
0.0723 µM: [6]
0.00635 µM: [43]
0.0312 µM: [49]; Homo sapiens, CGTH-W-1
0.0216 µM: [3]
0.118 µM: [19]; Homo sapiens, LS-411N
0.0853 µM: [41]; Homo sapiens, ACHN
0.0248 µM: [9]
0.0571 µM: [4]
0.0132 µM: [21]
0.0638 µM: [30]; Homo sapiens, ONS-76

O=C(c1cc(Cc2n[nH]c(=O)c3ccccc23)ccc1F)N1CCN(C(=O)C2CC2)CC1 [OLAPARIB]
> 5 µM: [1] | [2] | [3] | [51] | [4] | [5]; Homo sapiens, ES6 | [6] | [7]; Homo sapiens, HCC70 | [8]; Homo sapiens, HGC-27 | [9] | [10]; Homo sapiens, HN | [11]; Homo sapiens, HT-1376 | [12]; Homo sapiens, HuP-T3 | [13]; Homo sapiens, HuP-T4 | [14] | [15] | [52] | [16]; Homo sapiens, LC-2-ad | [17]; Homo sapiens, LK-2 | [18] | [19]; Homo sapiens, LS-411N | [20]; Homo sapiens, MDA-MB-361 | [21] | [22]; Homo sapiens, MKN-7 | [23]; Homo sapiens, MZ2-MEL | [24]; Homo sapiens, MZ7-mel | [25]; Homo sapiens, NB5 | [26]; Homo sapiens, NCI-H1623 | [27]; Homo sapiens, NCI-H1648 | [28]; Homo sapiens, NCI-H1693 | [30]; Homo sapiens, ONS-76 | [31]; Homo sapiens, PFSK-1 | [32]; Homo sapiens, RCM-1 | [33]; Homo sapiens, SCC-15 | [34]; Homo sapiens, SW1417 | [35]; Homo sapiens, SW1990 | [36]; Homo sapiens, SW-620 | [37]; Homo sapiens, SW 954 | [38]; Homo sapiens, 8-MG-BA | [39]; Homo sapiens, A-375 | [40]; Homo sapiens, A388 | [41]; Homo sapiens, ACHN | [42] | [43] | [44]; Homo sapiens, TE-6 | [45]; Homo sapiens, TE-8 | [46]; Homo sapiens, TYK-nu | [47] | [48]; Homo sapiens, CAMA-1 | [49]; Homo sapiens, CGTH-W-1 | [50]; Homo sapiens, COLO-668
1.33 µM: [29]; Homo sapiens, NTERA-2-cl-D1

Cc1cc([C@@H](C)Nc2ccccc2C(=O)O)c2nc(N3CCOCC3)cc(=O)n2c1 [AZD-6482]
1.18 µM and > 5.12 µM: [8]; hgc-27
> 5.12 µM and 3.13 µM: [26]; nci-h1623
1.66 µM and > 5.12 µM: [7]; hcc70
4.38 µM: [29]; ntera-2-cl-d1
> 5.12 µM: [1] | [2] | [51] | [4] | [5]; Homo sapiens, ES6 | [5]; es6 | [6] | [9] | [10]; hn | [11]; ht-1376 | [12]; hup-t3 | [13]; hup-t4 | [15] | [52] | [16]; lc-2-ad | [17]; lk-2 | [18] | [19]; Homo sapiens, LS-411N | [19]; ls-411n | [20]; mda-mb-361 | [21] | [22]; mkn-7 | [23]; mz2-mel | [24]; Homo sapiens, MZ7-mel | [24]; mz7-mel | [25]; nb5 | [27]; Homo sapiens, NCI-H1648 | [27]; nci-h1648 | [28]; nci-h1693 | [30]; ons-76 | [31]; pfsk-1 | [32]; rcm-1 | [33]; scc-15 | [34]; sw1417 | [35]; sw1990 | [36]; sw-620 | [38]; 8-mg-ba | [39]; a-375 | [40]; a388 | [53]; Homo sapiens, AGS | [53]; ags | [42] | [43] | [44]; te-6 | [45]; te-8 | [46]; tyk-nu | [49]; cgth-w-1 | [50]; colo-668
4.65 µM: [3]
4.5 µM and > 5.12 µM: [37]; sw 954
1.2 µM and > 5.12 µM: [48]; cama-1
2.19 µM: [29]; Homo sapiens, NTERA-2-cl-D1
3.53 µM: [20]; Homo sapiens, MDA-MB-361
> 5.12 µM and 2.24 µM: [41]; achn
